Test: xn = mol fraction of the nth substance listed
Settings: 101 kPa, Liquid; for viscosity: Concentric cylinders viscometry; for mass density: Vibrating tube method

CC(O)CN (stereo not given) [1-amino-2-propanol] + CCCCO
Settings	mass density [kg/m3]	viscosity [mPa·s]
288.15 K, x1 = 0.1	827.167	4.019
288.15 K, x1 = 0.2005	841.339	4.952
288.15 K, x1 = 0.3	855.625	6.238
288.15 K, x1 = 0.3999	870.246	8.046
288.15 K, x1 = 0.5	885.14	10.48
288.15 K, x1 = 0.6001	900.478	13.85
288.15 K, x1 = 0.7	916.099	18.2
288.15 K, x1 = 0.8	932.069	24.34
288.15 K, x1 = 0.8997	948.249	32.26
288.15 K, x1 = 1	964.544	43.7
293.15 K, x1 = 0.1	823.338	3.444
293.15 K, x1 = 0.2005	837.455	4.218
293.15 K, x1 = 0.3	851.736	5.202
293.15 K, x1 = 0.3999	866.053	6.617
293.15 K, x1 = 0.5	881.2	8.455
293.15 K, x1 = 0.6001	896.524	10.88
293.15 K, x1 = 0.7	912.152	14.08
293.15 K, x1 = 0.8	928.119	18.34
293.15 K, x1 = 0.8997	944.296	23.93
293.15 K, x1 = 1	960.598	31.68
298.15 K, x1 = 0.1	819.488	2.989
298.15 K, x1 = 0.2005	833.571	3.62
298.15 K, x1 = 0.3	847.825	4.398
298.15 K, x1 = 0.3999	862.123	5.507
298.15 K, x1 = 0.5	877.169	6.858
298.15 K, x1 = 0.6001	892.563	8.782
298.15 K, x1 = 0.7	908.181	11.03
298.15 K, x1 = 0.8	924.144	14.18
298.15 K, x1 = 0.8997	940.31	18.16
298.15 K, x1 = 1	956.618	23.54
303.15 K, x1 = 0.1	815.611	2.615
303.15 K, x1 = 0.2005	829.669	3.129
303.15 K, x1 = 0.3	843.892	3.756
303.15 K, x1 = 0.3999	858.167	4.639
303.15 K, x1 = 0.5	873.195	5.721
303.15 K, x1 = 0.6001	888.575	7.156
303.15 K, x1 = 0.7	904.186	8.892
303.15 K, x1 = 0.8	920.144	11.17
303.15 K, x1 = 0.8997	936.303	14.06
303.15 K, x1 = 1	952.612	17.9
308.15 K, x1 = 0.1	811.706	2.298
308.15 K, x1 = 0.2005	825.735	2.726
308.15 K, x1 = 0.3	839.932	3.23
308.15 K, x1 = 0.3999	854.42	3.944
308.15 K, x1 = 0.5	869.288	4.788
308.15 K, x1 = 0.6001	884.561	5.904
308.15 K, x1 = 0.7	900.162	7.231
308.15 K, x1 = 0.8	916.116	8.949
308.15 K, x1 = 0.8997	932.266	11.1
308.15 K, x1 = 1	948.577	13.88
313.15 K, x1 = 0.1	807.768	2.03
313.15 K, x1 = 0.2005	821.766	2.389
313.15 K, x1 = 0.3	835.94	2.801
313.15 K, x1 = 0.3999	850.406	3.377
313.15 K, x1 = 0.5	865.257	4.049
313.15 K, x1 = 0.6001	880.518	4.929
313.15 K, x1 = 0.7	896.106	5.957
313.15 K, x1 = 0.8	912.054	7.272
313.15 K, x1 = 0.8997	928.196	8.9
313.15 K, x1 = 1	944.515	10.96
318.15 K, x1 = 0.1	803.791	1.801
318.15 K, x1 = 0.2005	817.764	2.104
318.15 K, x1 = 0.3	831.911	2.445
318.15 K, x1 = 0.3999	846.355	2.915
318.15 K, x1 = 0.5	861.194	3.454
318.15 K, x1 = 0.6001	876.438	4.159
318.15 K, x1 = 0.7	892.017	4.969
318.15 K, x1 = 0.8	907.96	5.989
318.15 K, x1 = 0.8997	924.096	7.238
318.15 K, x1 = 1	940.423	8.798
323.15 K, x1 = 0.1	799.764	1.606
323.15 K, x1 = 0.2005	813.705	1.865
323.15 K, x1 = 0.3	827.834	2.144
323.15 K, x1 = 0.3999	842.264	2.535
323.15 K, x1 = 0.5	857.087	2.973
323.15 K, x1 = 0.6001	872.324	3.541
323.15 K, x1 = 0.7	887.889	4.192
323.15 K, x1 = 0.8	903.828	4.994
323.15 K, x1 = 0.8997	919.961	5.96
323.15 K, x1 = 1	936.293	7.166
328.15 K, x1 = 0.1	795.685	1.436
328.15 K, x1 = 0.2005	809.606	1.662
328.15 K, x1 = 0.3	823.708	1.887
328.15 K, x1 = 0.3999	838.127	2.218
328.15 K, x1 = 0.5	852.936	2.579
328.15 K, x1 = 0.6001	868.161	3.047
328.15 K, x1 = 0.7	883.72	3.568
328.15 K, x1 = 0.8	899.655	4.211
328.15 K, x1 = 0.8997	915.789	4.976
328.15 K, x1 = 1	932.13	5.915
333.15 K, x1 = 0.1	791.549	1.302
333.15 K, x1 = 0.2005	805.451	1.499
333.15 K, x1 = 0.3	819.532	1.699
333.15 K, x1 = 0.3999	833.936	1.973
333.15 K, x1 = 0.5	848.734	2.286
333.15 K, x1 = 0.6001	863.951	2.663
333.15 K, x1 = 0.7	879.505	3.099
333.15 K, x1 = 0.8	895.441	3.618
333.15 K, x1 = 0.8997	911.577	4.225
333.15 K, x1 = 1	927.93	4.986

— the NIST ThermoML archive (doi:10.1021/je401036f)
